# Columns and labels:
# [1] = Stability tests of compound of formula I and its monohydrochloride, phosphate and maleate (Example 4); type: physicochemical
# Description: The stability of the compound of formula I, the monohydrochloride of the compound of formula I in Example 1, the phosphate of the compound of formula I in Example 2, and the maleate of the compound of formula I in Example 3 were investigated.
# Stability investigation conditions: 40° C./75% RH-closed, 40° C./75% RH-open, and 60° C.-closed; stability investigation content: changes in related substances and crystal forms.
# Detection of related substances: about 6-7 mg of a sample was separately weighed out and added to a 10 mL volumetric flask; 50% aqueous acetonitrile solution was added for dissolution; the mixture was diluted to volume; and 10 μL of the sample was injected.
# [2] = test system: Streptococcus-induced rheumatoid arthritis; test: Streptococcus-induced rheumatoid arthritis (RA) model in rats; type: in vivo; conditions: female Lewis rats, 15 mpk intragastric daily for 25 days
# Description: In the experiment, 6- to 9-week-old female Lewis rats (Beijing Vital River) were used. Each group consisted of 6 rats, and they were given the cell wall peptidoglycan complexes of Streptococcus and several other species of bacteria by intraperitoneal administration (2-3 mg per rat) on D1, and were given the control compound (15 mpk) and the compound of formula I (15 mpk) by intragastric administration daily for 25 consecutive days. The arthritis in rats was scored in different phases. The scoring criteria are as follows: […] The scoring criteria are as follows: 0 points, no redness and swelling; 1 point, 1-2 red and swollen interphalangeal joints; 2 points, 3-4 red and swollen interphalangeal joints; 3 points, more than 4 red and swollen interphalangeal joints; 4 points, severe redness and swelling in toes or fingers to ankle joints or wrist joints.
# [3] = Liver microsomal stability experiment (human); type: in vitro ADME
# Description: A 0.1 M solution of dipotassium phosphate in distilled water (containing 1 mM ethylenediaminetetraacetic acid) was taken. Then the pH was adjusted to 7.4 with a 0.1 M solution of potassium dihydrogen phosphate in distilled water (containing 1 mM ethylenediaminetetraacetic acid).
# • Rat: SD Rat Liver Microsomes, Cat. No.: LM-DS-02M, RILD Research Institute for Liver Diseases (Shanghai) Co. Ltd. • Monkey: Cynomolgus Monkey Liver Microsomes, Cat. No.: LM-SXH-02M, RILD Research Institute for Liver Diseases (Shanghai) Co. Ltd. • Human: Pooled Human Liver Microsomes (Mongolian), Cat. No.: LM-R-02M, RILD Research Institute for Liver Diseases (Shanghai) Co. Ltd.
# A 10 mM solution of each of the control compound and test compounds was prepared in DMSO. Then 10 μL of the solution was added to 190 μL of acetonitrile to form a 0.5 mM stock solution. 1.5 μL of the 0.5 mM stock solution was measured out, and […] of 20 mg/mL liver microsomes and 479.75 μL of the buffer were added. (The actual preparation amount can be adjusted according to use).
# 10 mg/mL of reduced coenzyme II (NADPH) was prepared in the buffer. A 96-well plate was placed on ice. Wells corresponding to different time points (0, 10, 30, 60 and 90 min, Non-NADPH) were set for each compound. […] The mixture was analyzed on an AB SCIEX ExionLC-Triple Quad 5500 high-performance liquid chromatograph-mass spectrometer. […]
# [4] = molecular target: Complement factor B (Homo sapiens, UniProt P00751); test: Optical surface plasmon resonance (SPR) binding capacity assay
# Sequence of Complement factor B (P00751 26-764): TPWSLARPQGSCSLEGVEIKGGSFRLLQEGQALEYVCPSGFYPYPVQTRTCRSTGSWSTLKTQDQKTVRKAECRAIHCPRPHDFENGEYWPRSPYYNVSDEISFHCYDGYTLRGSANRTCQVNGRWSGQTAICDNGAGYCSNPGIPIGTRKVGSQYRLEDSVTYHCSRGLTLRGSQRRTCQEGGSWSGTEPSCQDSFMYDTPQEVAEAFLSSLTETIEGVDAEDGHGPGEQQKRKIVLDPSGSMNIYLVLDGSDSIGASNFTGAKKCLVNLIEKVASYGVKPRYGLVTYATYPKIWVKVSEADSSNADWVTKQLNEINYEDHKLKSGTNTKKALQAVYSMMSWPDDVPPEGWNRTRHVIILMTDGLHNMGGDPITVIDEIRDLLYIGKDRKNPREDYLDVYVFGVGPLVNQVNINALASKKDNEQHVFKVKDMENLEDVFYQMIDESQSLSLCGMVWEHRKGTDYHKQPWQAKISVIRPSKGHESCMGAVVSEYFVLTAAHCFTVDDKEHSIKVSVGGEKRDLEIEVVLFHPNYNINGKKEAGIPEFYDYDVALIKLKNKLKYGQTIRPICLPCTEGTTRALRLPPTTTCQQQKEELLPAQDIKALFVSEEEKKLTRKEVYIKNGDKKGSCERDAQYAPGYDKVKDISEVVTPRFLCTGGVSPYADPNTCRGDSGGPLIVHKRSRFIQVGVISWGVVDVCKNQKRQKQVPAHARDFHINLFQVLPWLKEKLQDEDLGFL
# Description: An SPR experiment was carried out at 25° C. In the experiment, a PBS buffer supplemented with 0.05% (v/v) P20 and 5% DMSO was used as a running buffer, and the analytical instrument Biacore 8K of GE Healthcare was used. A CM7 chip (GE Healthcare) was activated with 400 mM EDC and 100 mM NHS at a flow rate of 30 μL/min for 420 s. […] Then the assay chip was treated with 1 M ethanolamine hydrochloride at a flow rate of 10 μL/min for 300 s for chip blocking. The concentration of the test compound was 500 μM, the binding time was 120 s, and the dissociation time was 300 s. Data analysis was performed using a 1:1 binding model (Biacore Insight Evaluation Software, Version 2.0.15.12933).
# [5] = molecular target: T1, complement factor B in human serum (Homo sapiens, UniProt P00751); test: Complement hemolytic activity assay (rabbit erythrocytes, normal human serum); type: cell-based; conditions: versus control compound
# T1 construct: from tissue; host or cells: normal human serum (NHS)
# T1 sequence (P00751 26-764): as above
# Description: Prior to the experiment, the optimal concentration of normal human serum (NHS) required to achieve 100% lysis of rabbit erythrocytes (REs) was obtained by titration testing. […] A GVB0 buffer containing 10 mM Mg-EGTA and containing NHS and RE but no test compound was used as a positive control group (100% lysis). A GVB0 buffer containing 10 mM Mg-EGTA and containing inactivated NHS (heated at 56° C. for 30 min or at 65° C. for 5 min) and RE but no test compound was used as a negative control group (0% lysis). […] Absorbance at 415 nm (A415) was measured using a microplate reader (Molecular Devices, SpectraMax i3X). IC50 values were calculated from percent hemolysis as a function of test compound concentration by non-linear regression.
compound,measurement,setting,value
COc1cc(C)c2[nH]ccc2c1CN1CC[C@H](OCC2CC2)C[C@H]1c1ccc(C(=O)O)cc1 [Compound of formula I],Stability (conclusion in words from Table 7),"[1]; 40° C./75% RH closed/open and 60° C. closed, 2 wks, listed as compound of formula I",stable
same,Maximum single impurity %,[1]; 40° C./75% RH-closed-2 wks,0.16%
same,Purity %,[1]; 40° C./75% RH-closed-2 wks,99.23%
same,Total impurity %,[1]; 40° C./75% RH-closed-2 wks,0.77%
same,Maximum single impurity %,[1]; 40° C./75% RH-open-2 wks,0.17%
same,Purity %,[1]; 40° C./75% RH-open-2 wks,99.24%
same,Total impurity %,[1]; 40° C./75% RH-open-2 wks,0.76%
same,Maximum single impurity %,[1]; 60° C.-closed-2 wks,0.33%
same,Purity %,[1]; 60° C.-closed-2 wks,98.95%
same,Total impurity %,[1]; 60° C.-closed-2 wks,1.05%
same,Maximum single impurity %,[1]; Initial,0.10%
same,Purity %,[1]; Initial,99.28%
same,Total impurity %,[1]; Initial,0.72%
same,"Arthritis score (in words, FIG. 23)",[2],can improve the arthritis score
same,Effect on arthritis score versus control compound (in words),[2],significantly better effect than that of the control compound
same,MMS (human) Remaining (T = 90 min),"[3]; human liver microsomes, 90 min",91.04%
same,Liver microsomal stability (in words),"[3]; rat, monkey and human liver microsomes",significant liver microsomal stability
same,Rmax (RU),"[4]; test compound 500 μM, 25° C., 1:1 binding model",274.2 RU
same,Binding capacity to the target protein (in words),[4]; versus control compound,significantly superior to that of the control compound
same,Inhibitory activity against complement factor B in human serum (in words),[5],significantly better inhibitory activity against complement factor B in human serum than that of the control compound

# Source: patent US20260151379A1, “SALT TYPE AND CRYSTAL FORM OF COMPLEMENT FACTOR B INHIBITOR, AND PREPARATION METHOD THEREFOR AND APPLICATION THEREOF” (SHANGHAI MEIYUE BIOTECH DEVELOPMENT CO., LTD., priority 2022, published 2026)
